Results published in patent US6469052B2, “Compounds for the photodecontamination of pathogens in blood” (Cerus Corporation, priority 1993, dated 2002).
Like-named read-outs stand apart in the source and are kept apart here.

Tests used:
[1] = system: Salmonella typhimurium TA100
Excerpt: The second property that is important in testing a compound for use in methods of the present invention is mutagenicity. The most widely used mutagen/carcinogen screening assay is the Ames test. This assay is described by D. M. Maron and B. N. Ames in Mutation Research 113: 173 ( 1983) and a specific screen is described in detail in Example 17, below. The Ames test utilizes several unique strains of Salmonella typhimurium that are histidine- dependent for growth and that lack the usual DNA repair enzymes. The frequency of normal mutations that render the bacteria independent of histidine (i.e., the frequency of spontaneous revertants) is low. The test allows one to evaluate the impact of a compound on this revertant frequency.
In this example the compounds of the present invention are tested for their dark mutagenicity using an Ames assay. The procedures used for the Salmonella mutagenicity test as described in detail by Maron and Ames were followed exactly. Maron, D. M. and B. N. Ames, Mutation Research 113: 173 ( 1983). A brief description for each procedure is given here. The tester strains TA97a, TA98, TA100, TA102, TA1537 and TA1538 were obtained from Dr. Ames. TA97a, TA98, TA1537 and TA1538 are frameshift tester strains. TA100 and TA102 are base-substitution tester strains. Upon receipt each strain was cultured under a variety of conditions to confirm the genotypes specific to the strains.
The first tests done with the strains were to determine the range of spontaneous reversion for each of the strains. With each mutagenicity experiment the spontaneous reversion of the tester strains to histidine independence was measured and expressed as the number of spontaneous revertants per plate. This served as the background controls.
For all experiments, the pre-incubation procedure was used. In this procedure one vial of each tester strain was thawed and 20 μL of this culture was added to 6 mL of Oxoid Nutrient Broth #2. This solution was allowed to shake for 10 hours at 37° C. In the pre-incubation procedure, 0.1 mL of this overnight culture was added to each of the required number of sterile test tubes. To half of the tubes 0.5 mL of a 10% S-9 solution containing Aroclor 1254 induced rat liver extract (Molecular Toxicology Inc., Annapolis, Md.), and MgCl2, KCl, glucose-6-phosphate, NADP, and sodium phosphate buffer (Sigma, St. Louis, Mo.) were added. To the other half of the tubes 0.5 mL of 0.2M sodium phospate buffer, pH 7.4, was used in place of the S-9 mixture (the -S9 samples). Finally 0.1 mL of the test solution containing either 0, 0.1, 0.5, 1, 5, 10, 50, 100, 250, or 500 μg/mL of the test compound was added. The 0.7 mL mixture was vortexed and then pre-incubated while shaking for 20 minutes at 37° C. After shaking, 2 mL of molten top agar supplemented with histidine and biotin were added to the 0.7 mL mixture and immediately poured onto a minimal glucose agar plate (volume of base agar was 20 mL). The top agar was allowed 30 minutes to solidify and then the plates were inverted and incubated for 44 hours at 37° C. After incubation the number of revertant colonies on each plate were counted. […] (“n” represents the number of replicates performed for each data point.)
Maron and Ames (1983) describe the conflicting views with regard to the statisical treatment of data generated from the test.

[2] = system: mouse reticulocytes; settings: increased dose levels, male Balb/c mice, tail vein
Protocol: Male Balb/c mice were then injected with 0.1 ml of a compound solution via the tail vein. At least 3 mice were injected per dose level. Saline only was used as a negative control. For a positive control, cyclophosphamide (cycloPP) was administered at a dose of 30 mg/kg. In the experimental group, the injections were repeated once per day for four days. In the positive control group, the sample was administered only once, on day three. On day 5, several microliters of blood were withdrawn from each subject and smeared on a glass slide. Cells were fixed in absolute methanol and stored in a slide rack.
For analysis, cells were stained with acridine orange and visualized under a fluorescence microscope by counting: (i) the number of reticulocytes per 5000 erythrocytes; and (ii) the number of micronucleated reticulocytes per 1000 reticulocytes. Reticulocytes were distinguished by their red fluorescence due to the presence of RNA. Micronuclei were distinguished by their green fluorescence due to the presence of DNA. The percentage of reticulocytes (%PCE) was then calculated. A decrease in the frequency of […] in the percentage of reticulocytes, is an indication of bone marrow toxicity. The percentage of reticulocytes with micronuclei (%PCE with MN) was also calculated. An increase in %PCE with MN is a measure of clastogenicity.
After initial results were determined, the experiment was repeated using increased dose levels, until: (i) Micronucleus formation was seen; or (ii) Bone marrow toxicity was observed; or (ii) The lethal dose was reached; or (iv) A dose of 5 g/kg was administered.

[3] = system: Chinese hamster ovary (CHO) cells; assay: In vitro genotoxicity screen in CHO cells; format: cell-based; settings: approximately 3 hours exposure in the dark, dilutions 1-1000 μg/ml
Excerpt: The positive control was methylmethane sulfonate.
Coverslips were mounted with Permount.

[4] = system: GMP-140 (p-selectin) on platelets; assay: Platelet function: GMP-140 expression (flow cytometry, CD62); format: cell-based, human; settings: 100 μM compound, 5 Joules/cm^2, 5 days storage
Protocol: (§1) To measure the effects of the present compounds and methods of decontamination on platelet function using these four indicators, four samples were prepared for each compound tested, two control samples and two containing compound. Three units of human platelets were obtained from the Sacramento Blood Center, Sacramento, Calif. These were each transferred under sterile conditions to 50 ml centrifuge tubes, then aliquots of each unit were transferred into a second set of 50 ml sterile centrifuge tubes. To each centrifuge tube containing platelet concentrate (PC), an aliquot of compound stock was added to reach a final concentration of 100 μM of compound. […] The samples were pipetted gently up and down to mix. Then aliquots (either 3 ml or 8 ml) of each sample was transferred to two sterile Teflon™ Medi-bags™ (American Fluoroseal Co., Silver Springs, Md.) (presently owned by The West Company, Lionville, Pa.). Samples were treated in one of two different sized bags, having either 3 ml or 8 ml capacity. […] For each compound tested, two control samples without compound were prepared by again removing aliquots of platelet concentrate (17 ml if using an 8 ml bag, […] if using a 3 ml bag) from the same one of the first set of 50 ml centrifuge tubes from which the compound sample was drawn, and dividing into Medibags, as before. One of each pair of Medibags containing a compound, and one of each pair of control Medibags, were illuminated for 5 Joules/cm^2 on the device described in Example 1, above. Then all experimental and control Medibags were placed on a platelet shaker for storage for 5 days. The same experiments were repeated several times to obtain more statistically meaningful data, as represented by “n”, the number of data points represented, in the graphs of FIGS. 21-24, discussed below.

[5] = system: human platelets; settings: 100 μM compound
Protocol: as §1
A Sysmex cell counter was used to measure platelet count in the platelet samples. Samples were diluted 1:3 in blood bank saline.

| SMILES | revertants per plate ([1]; TA100 +S9, 5 μg/plate) | revertants per plate ([1]; TA100 +S9, 10 μg/plate) | revertants per plate ([1]; TA100 +S9, 50 μg/plate) | revertants per plate ([1]; TA100 +S9, 100 μg/plate) | revertants per plate ([1]; TA100 −S9, 5 μg/plate) | revertants per plate ([1]; TA100 −S9, 10 μg/plate) | revertants per plate ([1]; TA100 −S9, 50 μg/plate) | revertants per plate ([1]; TA100 −S9, 100 μg/plate) | outcome of dose escalation in the micronucleus assay [2] | genotoxic (toxic) concentration [3] [µg/mL] | GMP-140 expression: sample treated with light and psoralen (PCD) versus day 5 untreated control (D5) [4] | revertants per plate ([1]; TA100 +S9, 250 μg/plate) | platelet count, Day 5 treated sample versus Day 5 control ([5]; 5 Joules/cm^2) | platelet count compared with samples treated with light alone ([5]; 5 Joules/cm^2, 5 days storage) |
| --- | --- | --- | --- | --- | --- | --- | --- | --- | --- | --- | --- | --- | --- | --- |
| Cc1oc2c(C)c3oc(=O)cc(C)c3cc2c1COCCN [Compound 2, 4′-(4-amino-2-oxa)butyl-4,5′,8-trimethylpsoralen] | −18 | 1 | 115 | 96 | 103 | 46 | 182 | 121 | the acutely lethal dose was reached before there were any signs of bone marrow toxicity or micronucleus formation | 100 | little or no difference | – | – | – |
| Cc1oc2c(C)c3oc(=O)cc(C)c3cc2c1CNCCCCN [Compound 6, 4′-(6-amino-2-aza)hexyl-4,5′,8-trimethylpsoralen] | 12 | −5 | 24 | −2 | – | – | – | – | the acutely lethal dose was reached before there were any signs of bone marrow toxicity or micronucleus formation | 100 | little or no difference | −38 | counts equivalent to the 5 day control | higher platelet count than samples treated with light alone |
